# Laboratory results from patent publication US20160058712A1, “3-HYDROXYPTEROSTILBENE AND THERAPEUTIC APPLICATIONS THEREOF” (priority 2014, published 2016).
# Key:
# [1] = system: PC-3 (Human prostate cancer cell line); test: MTT cell viability assay, PC-3; assay type: cell-based
# Procedure: Cell viability was assayed by 3(4,5-dimethylthiazol-2-yl)-2,5-diphenyltetrazolium bromide (MTT). Briefly. COLO 205, HCT116 and HT29 cells were plated at a density of 2×10^2 cells/mL into 96 well plates. After overnight growth, cells were treated with a series of concentrations of pterostilbene or 3-hydroxypterostilbene for 24 h. The final concentrations of DMSO in the culture medium were <0.05%. At the end of treatment, 0.2% MTT was added and cells were incubated for a further 4 h. Cell viability was determined by scanning with an ELISA reader with a 570 nm filter.
# The MTT reaction explained in Para 0040 was also used to assess the cell viability of human prostate cancer cells (PC-3) in the presence of pterostilbene and 3-hydroxypterostilbene. The results (FIG. 1) are represented in Table II.
# [2] = system: PI3K/Akt, MAPKs and mTOR signaling in COLO 205 cells; test: Western blotting of mTOR/p70S6K, PI3K/Akt and MAPKs signaling; assay type: cell-based, human; settings: COLO 205, 50 μM, 24 hours
# Procedure: Western blotting analysis was performed as follows. The total proteins of COLO 205 cells were extracted via addition of gold lysis buffer (50 mM TrisHCl, pH 7.4; 1 mM NaF; 150 mM NaCl; 1 mM EGTA; 1 mM phenylmethanesulfonyl fluoride; 1% NP40; and 10 μg/mL leupeptin) to the cell pellets on ice for 30 min, followed by centrifugation at 10,000×g for 30 min at 4° C. The total proteins were measured by BioRad Protein Assay (BioRad Laboratories, Munich, Germany). The samples (50 μg of protein) were mixed with 5× sample buffer containing 0.3 M TrisHCl (pH 6.8), 25% 2mercaptoethanol, 12% sodium dodecyl sulfate (SDS), 25 mM EDTA, 20% glycerol, and 0.1% bromophenol blue. The mixtures were boiled at 100° C. for 5 min and were subjected to 10% SDS polyacrylamide minigels at a constant current of 20 mA. Electrophoresis was then carried out on SDSpolyacrylaniide gels. […] The transferred proteins were visualized with an enhanced chemi-luminescence detection kit (ECL Amersham Pharmacia Biotech, Buckinghamshire, UK). The densities of the bands were quantified with a computer densitometer (AlphaImager™ 2200 System Alpha densitometer. Innotech Corporation, San Leandro, Calif.). […]
# COLO 205 cells were treated with 50 μM pterostilbene or 3-hydroxypterostilbene for 24 hours. Cell lysates were prepared after 24 h treatment and the protein expression of LC3 were analyzed by Western blotting.
# [3] = system: COLO 205 xenograft tumors; test: COLO 205 xenograft model; assay type: in vivo
# Procedure: Male Balb/c nude mice at 3-4 weeks old (weighing 16-18 g) were obtained from the BioLASCO Experimental Animal Center (BioLASCO, Taipei, Taiwan). All animals were maintained in pathogen free sterile isolators and in a controlled atmosphere (25±1° C. at 50% relative humidity) and with a 12 h light-12 h dark cycle according to institutional guidelines. Animals were fed with standard AIN76 diet and all food, water, caging, and bedding were sterilized prior to use. Animals had free access to food and water at all times. Food cups were replenished with fresh diet every day. All animal experimental protocol used in this study was approved by Institutional Animal Care and Use Committee of the National Kaohsiung Marine University (IACUC, NKMU, #099AAA902, Validity dates: Jan. 1, 2009 Jul. 31, 2012). After 1 week of acclimation, colon cancer COLO 205 cells (5×10^6) in 0.2 mL PBS were injected subcutaneously between the scapulae of each nude mouse. After transplantation, tumor size was measured using calipers, and the tumor volume was estimated according to the following formula: tumor volume […]=L×W2/2, where L is the length and W is the width. Once tumors reached a mean size of […], mice were randomly divided into three groups (6 animals/group). Mice were i.p. injection with pterostilbene or 3-hydroxypterostilbene (10 mg/kg/d, respectively) for 15 days, while control animals were received injection of corn oil. The diet intake and body weight of each animal was monitored every day. The tumor volume was assessed and recorded every 5 days using caliper measurements. After 15 days, the mice were sacrificed by […] and the liver, kidneys, spleen and solid tumors were excised immediately and weighed. Average tumor volume and tumor weight of each group were represent the mean±standard deviation (SD). Average tumor volumes were recorded during the treatment and average tumor weights were measured at the end of experiment. Six samples were analyzed in each group, and values represent the mean±SD. *P<0.05 and **P<0.01, compared with control group. #P<0.05, compared with pterostilbene treated group. The tumor tissues were cut into several portion for western blot analysis or stored at −80° C. […] Furthermore, in mice receiving these treatment regimens, no gross signs of toxicity were observed during visible inspections of general appearance and microscopic examinations of individual organs. • 2.
# [4] = system: Bcl-xL and Bax in PC-3 cells; test: Western blot of Bcl-xL and Bax expression; assay type: cell-based, human; settings: PC-3, 10 μM, different time intervals
# PC-3 cells = test: Mitochondrial membrane potential by DiOC6 flow cytometry in PC-3 cells; assay type: cell-based, human; settings: PC-3, 10 and 20 μM, 48 hr
# Procedure: As a measure of down-stream check points in the mammalian apoptotic pathways, the potential of 3-HPT to cause mitochondrial dysfunction and activation of the caspase pathways was further evaluated. PC-3 cells were cultured in serum-free RPMI containing 0, 2.5, 5, 10, or 20 μM of 3-HPT for 48 hr, respectively. Then, cells were stained with DiOC6 and analyzed by flow cytometry.
smiles,measurement,setting,value
"COc1cc(/C=C/c2ccc(O)c(O)c2)cc(OC)c1 [3-hydroxypterostilbene, 3,4-dihydroxy-3′,5′-dimethoxy-trans-stilbene]",IC50,"[1]; Homo sapiens, PC-3, MTT",5 µM
same,growth inhibitory effect,[1]; PC-3 human prostate cancer cells,strong growth inhibitory effect
same,"PI3K/Akt and MAPKs signalings, phosphorylation of mTOR",[2],significantly down regulated
same,"protein levels of COX2, MMP9, VEGF, cyclin D1, and procaspase 3 in tumors","[3]; 10 mg/kg, Western blot, compared to the pterostilbene group",markedly decreased
same,"side effects or toxicity (body and organ weights, gross signs)","[3]; 10 mg/kg/d i.p., 15 days, nude mice",no noticeable side effects or toxicity
same,tumor volume,"[3]; 10 mg/kg/d i.p., after 15 days",significantly inhibited in comparison with the pterostilbene treated mice
same,tumor weight,"[3]; 10 mg/kg/d i.p., end of experiment",strongly inhibited
same,Bax (pro-apoptotic protein) expression,[4],upregulates
same,Bcl-xL (anti-apoptotic protein) expression,[4],clearly down-regulates
same,mitochondrial membrane potential,PC-3 cells,significant reduction
